# The supplement of paper PMC11208160
# Experiment: recombinant barcode read abundance after kanamycin selection (control-corrected) (log10(CPM+1)); higher = more efficient recombination; sequences stand for … in AGTGCAGAGAAAATCGGCCAGTTTTCTCTGCCTGCAGTCCGCATGCCGT…AGATTTATGCAGCGGACTGCCTTTCTCCCAAAGTGATAAACCGGACAGTATCATGGACCGGTTTTCCCGGTAATCCGTATTTGCAAGGTTGGTTTCACT; site = the 11-nt target
# Summary of the method: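 Two replicates per condition were plated: chloramphenicol/ampicillin LB agar for the control, and chloramphenicol/ampicillin/kanamycin with 0.1 mM IPTG for selection. The pooled E. coli screen behind them paired targets with IS621 bridge RNA target-binding loops. Recombination efficiency is expressed from averaged, control-corrected barcode counts per million at recombinant junctions, as log10(CPM+1).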
# 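Also: IS621 recombinase and bridge RNA in Escherichia coli cells.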
row,Sequence,recombinant barcode read abundance (log10)
1,GGCTCCTCTTGGGTTCTAACCTGTTGCAT (site GGCTCCTCTAT),0.907
2,GGCTCCTCTTGGGTTCTAACCTGTTGCCA (site GGCTCCTCTTG),0.674
3,GGCTCCTCTTGGGTTCTAACCTGTTGCCA (site GGTTCATCTTG),0.013
4,GGCTGCCCTTGGGTTCTAACCTGTTGCCT (site GACTGCCCTAG),0.156
5,GGCTGCCCTTGGGTTCTAACCTGTTGCCT (site GCCTGCCCTAG),0.57
6,GGCTGCCCTTGGGTTCTAACCTGTTGCCT (site GGCTGCCCTAG),0.258
7,GGCTGCCCTTGGGTTCTAACCTGTTGCCT (site GTCTGCCCTAG),0.149
8,GGGAACCCTTGGGTTCTAACCTGTTGCTC (site GGGAACCCTAA),0.131
9,GGGAACCCTTGGGTTCTAACCTGTTGCTC (site GGGAACCCTCA),0.659
10,GGGAACCCTTGGGTTCTAACCTGTTGCTC (site GGGAACCCTGA),1.16
11,GGGAACCCTTGGGTTCTAACCTGTTGCTC (site GGGAACCCTTA),0.509
12,GGGAACCCTTGGGTTCTAACCTGTTGCTT (site GGGAACCCTAA),1.25
13,GGGAACCCTTGGGTTCTAACCTGTTGCTT (site GGGAACCCTCA),0.386
14,GGGAACCCTTGGGTTCTAACCTGTTGCTT (site GGGAACCCTGA),0.0941
15,GGGAACCCTTGGGTTCTAACCTGTTGCTT (site GGGAACCCTTA),0.149
16,GGGAAGACTTGGGTTCTAACCTGTTGCCT (site GGAAAGACTAG),1.56
17,GGGAAGACTTGGGTTCTAACCTGTTGCCT (site GGCAAGACTAG),0.0845
18,GGGAAGACTTGGGTTCTAACCTGTTGCCT (site GGGAAGACTAG),2.55
19,GGGAAGACTTGGGTTCTAACCTGTTGCCT (site GGTAAGACTAG),0.333
20,GGGAATGCTTGGGTTCTAACCTGTTGCCT (site GGGAACGCTAG),0.108
21,GGGAATGCTTGGGTTCTAACCTGTTGCCT (site GGGAATGCTAG),2.35
22,GGGACAGCTTGGGTTCTAACCTGTTGCCT (site GAGACAACTAG),0.15

row,Sequence,recombinant barcode read abundance (log10)
1,GGGACAGCTTGGGTTCTAACCTGTTGCCT (site GGGACAGCTAG),1.12
2,GGGACCTCTTGGGTTCTAACCTGTTGCGT (site GGGACCTCTAC),2.68
3,GGGACCTCTTGGGTTCTAACCTGTTGCGT (site GGGACCTCTCC),0.201
4,GGGACGCCTTGGGTTCTAACCTGTTGCAT (site GAGCCGCCTAT),0.0802
5,GGGACGCCTTGGGTTCTAACCTGTTGCAT (site GGGACGCCTAT),1.17
6,GGGATACCTTGGGTTCTAACCTGTTGCTA (site GGGATACCTTA),1.37
7,GGGATACCTTGGGTTCTAACCTGTTGCTA (site TATGGTACTAC),0.292
8,GGGCACTCTTGGGTTCTAACCTGTTGCGT (site GGGCACTCTAA),0.559
9,GGGCACTCTTGGGTTCTAACCTGTTGCGT (site GGGCACTCTAC),2.97
10,GGGCACTCTTGGGTTCTAACCTGTTGCGT (site GGGCACTCTAG),0.161
11,GGGCACTCTTGGGTTCTAACCTGTTGCGT (site GGGCACTCTAT),2.27
12,GGGCTCACTTGGGTTCTAACCTGTTGCCT (site GGGCTCACTAG),0.983
13,GGGCTCACTTGGGTTCTAACCTGTTGCCT (site GGTCCCACTAG),0.184
14,GGGCTCCCTTGGGTTCTAACCTGTTGCCG (site GGGCTCCCTCG),1.92
15,GGGCTCCCTTGGGTTCTAACCTGTTGCCG (site TACAATTCTAT),0.128
16,GGGCTTACTTGGGTTCTAACCTGTTGCCT (site GAGCTTACTAG),0.695
17,GGGCTTACTTGGGTTCTAACCTGTTGCCT (site GCGCTTACTAG),0.362
18,GGGCTTACTTGGGTTCTAACCTGTTGCCT (site GGGCTTACTAG),0.178
19,GGGCTTACTTGGGTTCTAACCTGTTGCCT (site GTGCTTACTAG),0.325
20,GGGGACCCTTGGGTTCTAACCTGTTGCGG (site GGGGACCCTAC),2.34
21,GGGGACCCTTGGGTTCTAACCTGTTGCGG (site GGGGACCCTCC),3.01
22,GGGGACCCTTGGGTTCTAACCTGTTGCGG (site GGGGACCCTGC),0.667

row,Sequence,recombinant barcode read abundance (log10)
1,GGGGACCCTTGGGTTCTAACCTGTTGCGG (site GGGGACCCTTC),1.55
2,GGGGACCCTTGGGTTCTAACCTGTTGCGT (site GGGGACCCTAC),3.4
3,GGGGACCCTTGGGTTCTAACCTGTTGCGT (site GGGGACCCTCC),1.46
4,GGGGACCCTTGGGTTCTAACCTGTTGCGT (site GGGGACCCTGC),1.44
5,GGGGACCCTTGGGTTCTAACCTGTTGCGT (site GGGGACCCTTC),1.18
6,GGGGAGTCTTGGGTTCTAACCTGTTGCTT (site GGGGAGCCTCA),0.16
7,GGGGAGTCTTGGGTTCTAACCTGTTGCTT (site GGGGAGTCTAA),2.26
8,GGGGCAACTTGGGTTCTAACCTGTTGCTA (site CGGGCTACTTA),0.0424
9,GGGGCAACTTGGGTTCTAACCTGTTGCTA (site GGGGCAACTTA),0.388
10,GGGGCACCTTGGGTTCTAACCTGTTGCCT (site GGGGCACCTAA),0.216
11,GGGGCACCTTGGGTTCTAACCTGTTGCCT (site GGGGCACCTAC),0.0542
12,GGGGCACCTTGGGTTCTAACCTGTTGCCT (site GGGGCACCTAG),1.15
13,GGGGCACCTTGGGTTCTAACCTGTTGCCT (site GGGGCACCTAT),0.556
14,GGGGCACCTTGGGTTCTAACCTGTTGCTT (site GGGGCACCTAA),2.29
15,GGGGCACCTTGGGTTCTAACCTGTTGCTT (site GGGGCACCTAC),0.68
16,GGGGCACCTTGGGTTCTAACCTGTTGCTT (site GGGGCACCTAG),1.48
17,GGGGCACCTTGGGTTCTAACCTGTTGCTT (site GGGGCACCTAT),2.06
18,GGGGCGTCTTGGGTTCTAACCTGTTGCTT (site GGGGCATCTAA),1.54
19,GGGGCGTCTTGGGTTCTAACCTGTTGCTT (site GGGGCCTCTAA),0.0129
20,GGGGCGTCTTGGGTTCTAACCTGTTGCTT (site GGGGCGTCTAA),2.16
21,GGGGCGTCTTGGGTTCTAACCTGTTGCTT (site GGGGCTTCTAA),0.0767
22,GGGGCTACTTGGGTTCTAACCTGTTGCCT (site GGGGCTACTAG),0.396

row,Sequence,recombinant barcode read abundance (log10)
1,GGGGCTACTTGGGTTCTAACCTGTTGCCT (site GGGGCTACTGT),0.183
2,GGGGTCCCTTGGGTTCTAACCTGTTGCTT (site CTCAAAGCTTC),0.0621
3,GGGGTCCCTTGGGTTCTAACCTGTTGCTT (site GGGGTCCCTAA),2.79
4,GGGTCCACTTGGGTTCTAACCTGTTGCAT (site GGGTCCACTAA),0.481
5,GGGTCCACTTGGGTTCTAACCTGTTGCAT (site GGGTCCACTAC),0.13
6,GGGTCCACTTGGGTTCTAACCTGTTGCAT (site GGGTCCACTAG),0.699
7,GGGTCCACTTGGGTTCTAACCTGTTGCAT (site GGGTCCACTAT),2.17
8,GGGTCCACTTGGGTTCTAACCTGTTGCGT (site GGGTCCACTAA),0.239
9,GGGTCCACTTGGGTTCTAACCTGTTGCGT (site GGGTCCACTAC),2.82
10,GGGTCCACTTGGGTTCTAACCTGTTGCGT (site GGGTCCACTAG),1.5
11,GGGTCCACTTGGGTTCTAACCTGTTGCGT (site GGGTCCACTAT),1.45
12,GGGTCCTCTTGGGTTCTAACCTGTTGCCC (site GGGTCCTCTAG),1.36
13,GGGTCCTCTTGGGTTCTAACCTGTTGCCC (site GGGTCCTCTCG),0.0863
14,GGGTCCTCTTGGGTTCTAACCTGTTGCCC (site GGGTCCTCTGG),1.23
15,GGGTCCTCTTGGGTTCTAACCTGTTGCCC (site GGGTCCTCTTG),0.0208
16,GGGTCCTCTTGGGTTCTAACCTGTTGCCG (site GGGTCCTCTAG),1.32
17,GGGTCCTCTTGGGTTCTAACCTGTTGCCG (site GGGTCCTCTCG),2.01
18,GGGTCCTCTTGGGTTCTAACCTGTTGCCG (site GGGTCCTCTGG),0.422
19,GGGTCCTCTTGGGTTCTAACCTGTTGCCG (site GGGTCCTCTTG),0.205
20,GGGTTCACTTGGGTTCTAACCTGTTGCCG (site GAGTTCACTAG),0.0415
